Measured values: ChEMBL document CHEMBL4828771, “Discovery and Development of a Potent, Selective, and Orally Bioavailable CHK1 Inhibitor Candidate: 5-((4-((3-Amino-3-methylbutyl)amino)-5-(trifluoromethyl)pyrimidin-2-yl)amino)picolinonitrile” (J Med Chem, 2021)

Key:
[1] = target: T1, Serine/threonine-protein kinase Chk1 (Homo sapiens, UniProt O14757); test: Inhibition of CHK1 (unknown origin) incubated for 1 hr in presence of ATP by HTRF assay
T1 sequence (O14757 whole entry): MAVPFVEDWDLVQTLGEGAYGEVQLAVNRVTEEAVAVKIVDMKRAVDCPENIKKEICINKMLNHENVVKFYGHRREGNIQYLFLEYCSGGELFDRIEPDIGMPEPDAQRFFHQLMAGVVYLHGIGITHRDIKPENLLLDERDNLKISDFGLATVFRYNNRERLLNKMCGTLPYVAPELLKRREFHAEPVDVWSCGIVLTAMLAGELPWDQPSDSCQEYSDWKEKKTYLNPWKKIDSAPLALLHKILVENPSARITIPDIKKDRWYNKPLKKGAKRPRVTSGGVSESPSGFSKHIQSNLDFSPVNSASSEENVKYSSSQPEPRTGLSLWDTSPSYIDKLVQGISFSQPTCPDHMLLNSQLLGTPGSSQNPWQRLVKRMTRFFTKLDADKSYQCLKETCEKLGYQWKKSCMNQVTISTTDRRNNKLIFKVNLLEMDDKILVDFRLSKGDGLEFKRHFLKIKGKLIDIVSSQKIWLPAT

Z-138 = test: Antiproliferation activity against human Z138 cells assessed as reduction in cell viability incubated for 72 hrs by MTS assay; assay type: functional, cell-based; conditions: Z-138, 72 h
hERG (KCNH2) = hERG (KCNH2) (Homo sapiens, UniProt Q12809); test: Inhibition of human ERG expressed in HEK293 cells at 10 uM by patch-clamp technique relative to control; assay type: cell-based; conditions: HEK293 cells that express hERG
Sequence of hERG (KCNH2) (Q12809 whole entry): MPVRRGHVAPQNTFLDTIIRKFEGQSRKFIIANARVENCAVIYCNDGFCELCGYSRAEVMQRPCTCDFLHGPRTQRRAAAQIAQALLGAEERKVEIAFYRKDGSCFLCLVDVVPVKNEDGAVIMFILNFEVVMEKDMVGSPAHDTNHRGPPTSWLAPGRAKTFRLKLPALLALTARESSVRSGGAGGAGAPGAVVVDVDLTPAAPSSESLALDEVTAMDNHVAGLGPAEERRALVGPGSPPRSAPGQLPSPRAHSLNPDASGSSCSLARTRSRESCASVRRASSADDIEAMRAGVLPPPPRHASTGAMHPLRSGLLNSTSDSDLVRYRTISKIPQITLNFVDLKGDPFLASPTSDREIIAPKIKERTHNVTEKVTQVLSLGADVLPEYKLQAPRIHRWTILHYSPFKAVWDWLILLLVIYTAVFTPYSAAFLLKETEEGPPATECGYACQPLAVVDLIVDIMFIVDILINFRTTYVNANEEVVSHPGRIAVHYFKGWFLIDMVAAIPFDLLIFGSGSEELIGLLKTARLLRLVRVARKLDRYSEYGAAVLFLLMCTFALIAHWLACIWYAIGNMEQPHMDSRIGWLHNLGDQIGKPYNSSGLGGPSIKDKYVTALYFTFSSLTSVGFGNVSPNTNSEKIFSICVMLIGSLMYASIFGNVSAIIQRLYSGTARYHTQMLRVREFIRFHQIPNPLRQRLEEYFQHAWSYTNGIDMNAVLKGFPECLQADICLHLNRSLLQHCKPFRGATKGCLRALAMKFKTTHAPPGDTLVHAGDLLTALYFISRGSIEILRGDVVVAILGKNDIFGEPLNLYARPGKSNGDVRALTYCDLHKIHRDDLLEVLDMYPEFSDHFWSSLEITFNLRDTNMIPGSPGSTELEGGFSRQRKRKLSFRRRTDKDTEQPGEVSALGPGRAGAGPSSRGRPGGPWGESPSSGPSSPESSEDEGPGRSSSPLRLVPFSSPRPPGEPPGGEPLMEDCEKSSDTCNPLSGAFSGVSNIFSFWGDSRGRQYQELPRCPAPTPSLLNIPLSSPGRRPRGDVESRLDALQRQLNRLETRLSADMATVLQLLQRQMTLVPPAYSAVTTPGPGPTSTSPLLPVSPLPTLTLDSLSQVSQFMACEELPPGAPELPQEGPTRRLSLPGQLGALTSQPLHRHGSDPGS

MV4-11 = test: Antiproliferation activity against human MV4-11 cells assessed as reduction in cell viability incubated for 72 hrs by MTS assay; assay type: functional, cell-based; conditions: MV4-11, 72 h
[2] = Tmax in ICR mouse at 20 mg/kg, po measured after 0.083 to 48 hrs by LC-MS/MS analysis; assay type: ADME, organism-based; conditions: in vivo, time 0.083-48 hrs
[3] = MRT (0 to infinity) in ICR mouse at 20 mg/kg, po measured after 0.083 to 48 hrs by LC-MS/MS analysis; assay type: ADME, organism-based; conditions: in vivo, time 0.083-48 hrs
[4] = Cmax in ICR mouse at 20 mg/kg, po measured after 0.083 to 48 hrs by LC-MS/MS analysis; assay type: ADME, organism-based; set-up: route oral, time upper 48 hrs, time lower 0.083 hrs, dose 20 mg/kg; conditions: in vivo
[5] = AUC (0 to infinity) in ICR mouse at 20 mg/kg, po measured after 0.083 to 48 hrs by LC-MS/MS analysis; assay type: ADME, organism-based; set-up: route oral, time upper 48 hrs, time lower 0.083 hrs, dose 20 mg/kg; conditions: in vivo
[6] = AUCt in ICR mouse at 20 mg/kg, po measured after 0.083 to 48 hrs by LC-MS/MS analysis; assay type: ADME, organism-based; set-up: route oral, dose 20 mg/kg, time 0.083-48 hrs; conditions: in vivo
[7] = Half life in ICR mouse at 20 mg/kg, po measured after 0.083 to 48 hrs by LC-MS/MS analysis; assay type: ADME, organism-based; conditions: in vivo, time 0.083-48 hrs

IC50 [1] [nM]	IC50 (MV4-11) [nM]	Compound	IC50 (Z-138) [nM]	further results
69.5	–	N#Cc1ccc(Nc2ncc(C(F)(F)F)c(NC3CCCNC3)n2)cn1 (racemic)	–	–
33.1	70	CNc1nc(Nc2cnc(C#N)c(N[C@H]3CC[C@H](N)CC3)c2)ncc1C(F)(F)F	960	inhibition at 10 µM (hERG (KCNH2)): 5.3%
44.2	–	N#Cc1ccc(Nc2ncc(C(F)(F)F)c(N[C@H]3CC[C@@H](N)CC3)n2)cn1	–	inhibition at 10 µM (hERG (KCNH2)): 36.8%
88.4	–	N#Cc1ccc(Nc2ncc(C(F)(F)F)c(NCCCCN)n2)cn1	–	–
21.3	430	CNc1nc(Nc2cnc(C#N)c(O[C@@H]3CCNC3)c2)ncc1C(F)(F)F	1410	–
59.5	–	CNc1nc(Nc2cnc(C#N)c(N[C@H]3CCNC3)c2)ncc1C(F)(F)F	–	–
355	–	CNc1nc(Nc2cnc(C#N)c(O[C@H]3CCCNC3)c2)ncc1C(F)(F)F	–	–
28.3	270	N#Cc1ccc(Nc2ncc(C(F)(F)F)c(N[C@H]3CCCNC3)n2)cn1	160	inhibition at 10 µM (hERG (KCNH2)): 74.6%
53.7	–	CNc1nc(Nc2cnc(C#N)c(OC3CCN(C)CC3)c2)ncc1C(F)(F)F	–	–
101	–	CNc1nc(Nc2cnc(C#N)c(NC3CCNCC3)c2)ncc1C(F)(F)F	–	–
220	–	CC(C)(CN)CNc1nc(Nc2ccc(C#N)nc2)ncc1C(F)(F)F	–	–
244	–	CNc1nc(Nc2cnc(C#N)c(OC[C@@H]3CCCNC3)c2)ncc1C(F)(F)F	–	–
213	–	CNc1nc(Nc2cnc(C#N)c(OCC3CCNCC3)c2)ncc1C(F)(F)F	–	–
20.2	140	CNc1nc(Nc2cnc(C#N)c(NC[C@@H]3CCNC3)c2)ncc1C(F)(F)F	270	inhibition at 10 µM (hERG (KCNH2)): 2.4%
624	–	N#Cc1ccc(Nc2ncc(C(F)(F)F)c(NC3CC4CCC(C3)N4)n2)cn1 (configuration not stated)	–	–
32.7	240	CNc1nc(Nc2cnc(C#N)c(OC3CCNCC3)c2)ncc1C(F)(F)F	440	–
1490	–	N#Cc1ccc(Nc2ncc(C(F)(F)F)c(NCCCNC3CCC3)n2)cn1	–	–
2260	–	N#Cc1ccc(Nc2ncc(C(F)(F)F)c(NCCCNC3CCCCC3)n2)cn1	–	–
34	260	CNc1nc(Nc2cnc(C#N)c(NCCN(C)C)c2)ncc1C(F)(F)F	290	–
1980	–	CC(C)NCCCNc1nc(Nc2ccc(C#N)nc2)ncc1C(F)(F)F	–	–
23.8	300	N#Cc1ccc(Nc2ncc(C(F)(F)F)c(NC[C@@H]3CCCNC3)n2)cn1	1190	inhibition at 10 µM (hERG (KCNH2)): 41.1%
111	–	N#Cc1ccc(Nc2ncc(C(F)(F)F)c(NC[C@H]3CCCNC3)n2)cn1	–	–
37.3	400	N#Cc1ccc(Nc2ncc(C(F)(F)F)c(NC[C@H]3CNCCO3)n2)cn1	1130	inhibition at 10 µM (hERG (KCNH2)): 31.3%
214	–	N#Cc1ccc(Nc2ncc(C(F)(F)F)c(N[C@H]3CCNC3)n2)cn1	–	–
46.9	160	CNc1nc(Nc2cnc(C#N)c(NCC3CCCCN3)c2)ncc1C(F)(F)F (configuration not stated)	210	–
19.1	210	CNc1nc(Nc2cnc(C#N)c(NCCN)c2)ncc1C(F)(F)F	400	inhibition at 10 µM (hERG (KCNH2)): 9%
458	–	CN(C)CCCNc1nc(Nc2ccc(C#N)nc2)ncc1C(F)(F)F	–	–
7.6	330	CNc1nc(Nc2cnc(C#N)c(O[C@@H]3CCCNC3)c2)ncc1C(F)(F)F	1390	Tmax [2]: 1.08 h; MRT inf [3]: 1.57 h; Cmax [4]: 127 ng/mL; AUC(0-inf) [5]: 168 ng·h/mL; AUC(0-t) [6]: 166 ng·h/mL; half-life [7]: 0.7 h; inhibition at 10 µM (hERG (KCNH2)): 91.6%
185	–	CN1CCC(CNc2nc(Nc3ccc(C#N)nc3)ncc2C(F)(F)F)CC1	–	–
78	–	CNc1nc(Nc2cnc(C#N)c(OCCCN)c2)ncc1C(F)(F)F	–	–

Compound	IC50 [1] [nM]	IC50 (MV4-11) [nM]	IC50 (Z-138) [nM]	further results
CNc1nc(Nc2cnc(C#N)c(NC3CN4CCC3CC4)c2)ncc1C(F)(F)F (configuration not stated)	608	–	–	–
